Laboratory results: patent US20240101572A1, “DIHYDROOXADIAZINONE COMPOUND AND PHARMACEUTICAL USE THEREOF” (Japan Tobacco Inc., priority 2022, published 2024)
pIC50: −log10 of the molar value. Where two headings read alike, the source gives them in different places.

Key:
[1] = molecular target: full-length human PLD1 (Homo sapiens (Human), UniProt Q13393); assay: Evaluation of human PLD1 enzyme inhibitory activity (Amplex Red / choline oxidase fluorescence); type: biochemical
Summary of the method: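 Fluorescence read-out couples choline to Amplex Red via choline oxidase and peroxidase after a 60 min room-temperature reaction. Enzyme: FLAG-tagged full-length human PLD1 from Expi293F cells, anti-FLAG purified; substrate diheptanoyl phosphatidylcholine; HEPES pH 7.5 assay buffer with 0.01% NP-40, 0.1% BSA, 5% DMSO final.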

[2] = molecular target: full-length human PLD2 (Homo sapiens (Human), UniProt O14939); assay: Evaluation of human PLD2 enzyme inhibitory activity (Amplex Red / choline oxidase fluorescence); type: biochemical
Summary of the method: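 Released choline was read by Amplex Red fluorescence coupled to choline oxidase and HRP after a 60 min room-temperature reaction. Substrate was diheptanoyl phosphatidylcholine, added as a 6 mmol/L solution, and enzyme was FLAG-tagged full-length human PLD2 from Expi293F, added as a 6 nmol/L solution. Buffer was 50 mM HEPES pH 7.5 with 5% final DMSO.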

[3] = full-length human PLD1 enzyme, read-out: PLD1 IC50
[4] = full-length human PLD2 enzyme, read-out: PLD2 IC50

full-length human PLD1, sequence (Q13393 other isoform, or with tags, fused parts or gaps): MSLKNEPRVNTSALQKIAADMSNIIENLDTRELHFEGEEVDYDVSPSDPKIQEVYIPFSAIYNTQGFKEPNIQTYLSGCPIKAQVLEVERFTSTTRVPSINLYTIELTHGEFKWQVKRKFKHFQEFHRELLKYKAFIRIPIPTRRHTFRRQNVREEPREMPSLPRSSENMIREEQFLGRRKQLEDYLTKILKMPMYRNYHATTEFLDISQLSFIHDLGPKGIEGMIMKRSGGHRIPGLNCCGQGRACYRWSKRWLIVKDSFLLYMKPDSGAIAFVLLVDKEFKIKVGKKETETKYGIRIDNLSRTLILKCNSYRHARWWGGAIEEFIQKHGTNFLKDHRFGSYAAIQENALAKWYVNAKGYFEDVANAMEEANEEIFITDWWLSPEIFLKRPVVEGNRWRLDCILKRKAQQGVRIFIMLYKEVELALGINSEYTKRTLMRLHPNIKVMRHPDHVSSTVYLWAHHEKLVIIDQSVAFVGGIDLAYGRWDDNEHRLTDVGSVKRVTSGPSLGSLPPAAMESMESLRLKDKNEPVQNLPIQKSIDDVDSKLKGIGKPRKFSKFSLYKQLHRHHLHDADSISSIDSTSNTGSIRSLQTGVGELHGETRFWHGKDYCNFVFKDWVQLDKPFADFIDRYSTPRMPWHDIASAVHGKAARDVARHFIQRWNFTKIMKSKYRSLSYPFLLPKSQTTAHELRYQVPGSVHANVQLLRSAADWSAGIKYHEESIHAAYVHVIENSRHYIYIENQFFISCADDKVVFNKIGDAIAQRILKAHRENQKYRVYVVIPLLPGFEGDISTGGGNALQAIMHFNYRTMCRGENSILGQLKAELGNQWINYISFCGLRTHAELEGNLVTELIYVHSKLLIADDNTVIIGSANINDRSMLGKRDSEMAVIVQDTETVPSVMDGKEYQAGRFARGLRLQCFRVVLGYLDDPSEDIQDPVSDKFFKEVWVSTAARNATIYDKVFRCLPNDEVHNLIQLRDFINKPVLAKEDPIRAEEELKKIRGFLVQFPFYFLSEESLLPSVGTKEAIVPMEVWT
full-length human PLD2, sequence (O14939 whole entry): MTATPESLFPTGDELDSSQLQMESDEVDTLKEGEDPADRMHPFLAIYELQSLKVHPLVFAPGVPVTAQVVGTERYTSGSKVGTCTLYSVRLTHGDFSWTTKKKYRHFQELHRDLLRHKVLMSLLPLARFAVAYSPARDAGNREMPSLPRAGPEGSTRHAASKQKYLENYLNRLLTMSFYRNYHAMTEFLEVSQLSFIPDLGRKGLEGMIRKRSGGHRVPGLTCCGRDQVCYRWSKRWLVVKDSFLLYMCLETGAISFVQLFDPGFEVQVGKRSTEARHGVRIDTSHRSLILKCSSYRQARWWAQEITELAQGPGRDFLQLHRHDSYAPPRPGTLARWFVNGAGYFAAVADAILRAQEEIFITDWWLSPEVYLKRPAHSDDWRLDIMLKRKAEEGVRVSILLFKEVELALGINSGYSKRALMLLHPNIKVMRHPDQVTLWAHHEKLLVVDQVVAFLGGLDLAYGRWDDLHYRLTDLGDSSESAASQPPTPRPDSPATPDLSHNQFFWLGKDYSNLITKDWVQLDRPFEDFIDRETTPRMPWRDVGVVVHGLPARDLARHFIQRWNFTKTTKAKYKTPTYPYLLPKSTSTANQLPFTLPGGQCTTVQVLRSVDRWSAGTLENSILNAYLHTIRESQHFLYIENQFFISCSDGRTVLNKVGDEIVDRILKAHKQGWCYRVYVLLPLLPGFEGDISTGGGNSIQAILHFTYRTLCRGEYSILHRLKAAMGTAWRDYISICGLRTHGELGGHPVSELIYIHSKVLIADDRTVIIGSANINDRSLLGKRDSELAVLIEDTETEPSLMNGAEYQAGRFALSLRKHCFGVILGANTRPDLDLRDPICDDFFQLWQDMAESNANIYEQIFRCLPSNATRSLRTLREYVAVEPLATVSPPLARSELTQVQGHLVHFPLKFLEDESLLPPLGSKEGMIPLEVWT

| Structure (SMILES) | pIC50 [1, 3] | pIC50 [2, 4] | pIC50 ([1]; column 1 of continuation tables 2-12 to 2-14, read-out: human PLD1 enzyme inhibitory activity IC50) | pIC50 ([2]; column 2 of continuation tables 2-12 to 2-14, read-out: human PLD2 enzyme inhibitory activity IC50) |
| --- | --- | --- | --- | --- |
| C[C@@H](C[C@H]1CC[C@]2(CC1)OC(=O)NN=C2c1cnc(N2CCOCC2)cc1Cl)NC(=O)N1CCn2nccc2C1 [Example 275] | 7.60 | > 8.00 | – | – |
| [2H]C([2H])([2H])NC(=O)C(=O)N[C@@H](C)C[C@]1(OC)CC[C@@]2(CC1)OC(=O)NN=C2c1ccc(F)cc1Br [Example 2-135] | – | – | 7.70 | > 8.00 |
| CNC(=O)C(=O)N[C@@H](C)CC1CCC2(CC1)OC(=O)NN=C2c1ccncc1C (mixture of isomers) [Example 125] | 7.40 | 7.24 | – | – |
| Cc1cc(C(=O)N[C@@H](C)CN2CCC3(CC2)OC(=O)NN=C3c2ccc(C#N)cc2Cl)[nH]n1 [Example 169] | 7.47 | 7.70 | – | – |
| C[C@@H](C[C@H]1CC[C@]2(CC1)OC(=O)NN=C2c1ccc(F)cc1Br)NC(=O)c1cnn(C)c1 [Example 219] | > 8.00 | > 8.00 | – | – |
| Cc1cc(C(=O)N[C@@H](C)C[C@H]2CC[C@]3(CC2)OC(=O)NN=C3c2cnc(N3CC4CCC(C3)O4)cc2Cl)[nH]n1 [Example 247] | 7.85 | > 8.00 | – | – |
| CNC(=O)C(=O)N[C@@H](C)C[C@H]1CC[C@]2(CC1)OC(=O)NN=C2c1cnc(O)cc1C [Example 162] | 6.49 | 6.27 | – | – |
| CNC(=O)C(=O)N[C@@H](C)C[C@H]1CC[C@]2(CC1)OC(=O)NN=C2c1cnc(N2C[C@@H]3C[C@H]2CO3)cc1Cl [Example 244] | 7.72 | > 8.00 | – | – |
| C[C@@H](C[C@H]1CC[C@]2(CC1)OC(=O)NN=C2c1cc(Cl)ccc1Cl)NC(=O)c1cc2ccccn2c1 [Example 323] | 8.00 | > 8.00 | – | – |
| CNC(=O)C(=O)N[C@@H](C)C[C@H]1CC[C@]2(CC1)OC(=O)NN=C2c1cnc(N2CC(C(F)(F)F)C2)cc1C [Example 192] | 7.68 | > 8.00 | – | – |
| Cc1cc(C(=O)NC[C@H](C)N2CCC3(CC2)OC(=O)NN=C3c2ccc(C#N)cc2Br)[nH]n1 [Example 335] | 6.90 | > 8.00 | – | – |
| COC(=O)/C=C/C(=O)N[C@@H](C)CN1CCC2(CC1)OC(=O)NN=C2c1cc(C#N)ccc1Br [Example 2-024] | 7.34 | 7.55 | – | – |
| Cc1cc(C(=O)N[C@@H](C)C[C@H]2CC[C@]3(CC2)OC(=O)NN=C3c2cccc(OC(F)F)c2Br)[nH]n1 [Example 307] | 7.89 | > 8.00 | – | – |
| C=C(OCC)c1ccc(C2=NNC(=O)O[C@]23CC[C@@H](C[C@H](C)NC(=O)C(=O)NC)CC3)c(C)c1 [Example 163] | > 8.00 | > 8.00 | – | – |
| C[C@@H](C[C@H]1CC[C@]2(CC1)OC(=O)NN=C2c1cc(OC(F)(F)F)ccc1Br)NC(=O)C(=O)NC1CC1 [Example 295] | > 8.00 | > 8.00 | – | – |
| Cc1cc(F)ccc1C1=NNC(=O)O[C@]12CC[C@@H](C[C@H](C)NC(=O)N1CCc3ccccc3C1)CC2 [Example 155] | 7.85 | > 8.00 | – | – |
| CNC(=O)C(=O)N[C@@H](C)C[C@H]1CC[C@]2(CC1)OC(=O)NN=C2c1ccc(S(C)(=O)=O)cc1Br [Example 33] | 7.60 | > 8.00 | – | – |
| CNC(=O)C(=O)N[C@@H](C)CN1CC2CC1CC21OC(=O)NN=C1c1ccc(F)cc1Br (mixture of isomers) [Example 2-005] | 6.36 | 7.46 | – | – |
| C[C@@H](CC1CCC2(CC1)OC(=O)NN=C2c1ccncc1Br)NC(=O)c1cc2ccccc2o1 (mixture of isomers) [Example 122] | > 8.00 | > 8.00 | – | – |
| Cc1cc(C(=O)N[C@@H](C)C[C@H]2CC[C@]3(CC2)OC(=O)NN=C3c2cnc(C3CC3)cc2Cl)[nH]n1 [Example 266] | 7.82 | > 8.00 | – | – |
| CNC(=O)C(=O)N[C@@H](C)C[C@]1(O)CC[C@]2(CC1)OC(=O)NN=C2c1ccc(F)cc1Br [Example 319] | 5.68 | 6.13 | – | – |
| CNC(=O)C(=O)N[C@@H](C)C[C@H]1CC[C@]2(CC1)OC(=O)NN=C2c1cnc(N2CC3(COC3)C2)cc1C [Example 191] | 7.42 | > 8.00 | – | – |
| CC(C)C(=O)N[C@@H](C)C[C@H]1CC[C@]2(CC1)OC(=O)NN=C2c1ccc(F)cc1Br [Example 20] | 5.78 | 5.42 | – | – |
| CNC(=O)/C=C\C(=O)N[C@@H](C)CN1CCC2(CC1)OC(=O)NN=C2c1cc(C#N)ccc1Br [Example 2-063] | 6.76 | 6.97 | – | – |
| CNC(=O)C(=O)N[C@@H](C)C[C@H]1CC[C@]2(CC1)OC(=O)NN=C2c1cc(C(=O)N(C)C)ccc1Br [Example 2-036] | 7.77 | > 8.00 | – | – |
| CNC(=O)C(=O)N[C@@H](C)CN1CCC2(CC1)OC(=O)NN=C2c1cn(C)nc1I [Example 2-043] | 7.48 | 6.82 | – | – |

| Structure (SMILES) | pIC50 [1, 3] | pIC50 [2, 4] | pIC50 ([1]; column 1 of continuation tables 2-12 to 2-14, read-out: human PLD1 enzyme inhibitory activity IC50) | pIC50 ([2]; column 2 of continuation tables 2-12 to 2-14, read-out: human PLD2 enzyme inhibitory activity IC50) |
| --- | --- | --- | --- | --- |
| C[C@@H](C[C@H]1CC[C@]2(CC1)OC(=O)NN=C2c1cc(Cl)ccc1Cl)NC(=O)c1cn2ccccc2n1 [Example 324] | 7.70 | 7.66 | – | – |
| C[C@@H](CN1CCC2(CC1)OC(=O)NN=C2c1cc(C#N)ccc1Br)NC(=O)C[C@@H](O)C(F)(F)F [Example 2-002] | 5.90 | 5.73 | – | – |
| CNC(=O)C(=O)N[C@@H](C)C[C@H]1CC[C@]2(CC1)OC(=O)NN=C2c1cccnc1C [Example 102] | 6.54 | 6.18 | – | – |
| CSc1ccc(C2=NNC(=O)OC23CCN(C[C@H](C)NC(=O)c2cc(C)n[nH]2)CC3)c(Cl)c1 [Example 127] | 7.60 | > 8.00 | – | – |
| C[C@@H](CN1CCC2(CC1)OC(=O)NN=C2c1ccc(F)cc1Cl)NC(=O)c1cn(C)nn1 [Example 94] | 7.17 | 7.22 | – | – |
| Cc1cc(C(=O)N[C@@H](C)C[C@]2(O)CC[C@@]3(CC2)OC(=O)NN=C3c2ccc(F)cc2Br)[nH]n1 [Example 322, N—((S)-1-(trans-5-(2-bromo-4-fluorophenyl)-9-hydroxy-2-oxo-1-oxa-3,4-diazaspiro[5,5]undec-4-en-9-yl)propan-2-yl)-3-methyl-1H-pyrazole-5-carboxamide] | 7.52 | > 8.00 | – | – |
| C[C@@H](CN1CCC2(CC1)OC(=O)NN=C2c1ccc(F)cc1Cl)NC(=O)c1ncn[nH]1 [Example 95] | 5.09 | 5.21 | – | – |
| Cc1cc(C(=O)N[C@@H](C)C[C@H]2CC[C@]3(CC2)OC(=O)NN=C3c2cc(OC(F)F)ccc2Br)[nH]n1 [Example 214] | > 8.00 | > 8.00 | – | – |
| COc1cc(C)c(C2=NNC(=O)O[C@]23CC[C@@H](C[C@H](C)NC(=O)N2CCc4nocc4C2)CC3)cn1 [Example 260] | 7.51 | > 8.00 | – | – |
| CNC(=O)C(=O)N[C@@H](C)CN1CCC2(CC1)OC(=O)NN=C2c1ccc(C#N)cc1Cl [Example 168] | 7.25 | 7.46 | – | – |
| CNC(=O)C(=O)N[C@H](CN1CCC2(CC1)OC(=O)NN=C2c1cc(C#N)ccc1Br)C(F)(F)F [Example 2-017] | 7.00 | 7.35 | – | – |
| C[C@@H](C[C@H]1CC[C@]2(CC1)OC(=O)NN=C2c1ccccc1SC(F)(F)F)NC(=O)c1cnn(C)c1 [Example 2-020] | 7.68 | 7.80 | – | – |
| C[C@@H](C[C@H]1CC[C@]2(CC1)OC(=O)NN=C2c1ccc(F)cc1Br)NC(=O)C(=O)NC1CC1 [Example 203] | 7.92 | > 8.00 | – | – |
| Cc1cc(C(=O)N[C@@H](C)[C@H](C)N2CCC3(CC2)OC(=O)NN=C3c2ccc(F)cc2Br)[nH]n1 [Example 288] | 7.59 | > 8.00 | – | – |
| CNC(=O)C(=O)N[C@@H](C)CN1CCC2(CC1)OC(=O)NN=C2c1cc(C(=O)OC)ccc1Br [Example 2-033] | 7.46 | > 8.00 | – | – |
| [2H]C([2H])([2H])NC(=O)C(=O)N[C@@H](C)CN1CCC2(CC1)OC(=O)NN=C2c1cc(C#N)c(F)cc1Br [Example 2-004] | 7.17 | > 8.00 | – | – |
| CNC(=O)C(=O)N[C@@H](C)C[C@H]1CC[C@]2(CC1)OC(=O)NN=C2c1ccc(OCC(C)(C)O)cc1Br [Example 130] | 7.74 | > 8.00 | – | – |
| CNC(=O)C(=O)N[C@@H](C)C[C@H]1CC[C@]2(CC1)OC(=O)NN=C2c1ccc(Br)cc1 [Example 23] | 7.41 | 7.29 | – | – |
| C[C@@H](C[C@H]1CC[C@]2(CC1)OC(=O)NN=C2c1ccc(F)cc1Cl)NC(=O)C(=O)NC1CC1 [Example 70] | 7.55 | 7.70 | – | – |
| C[C@@H](C[C@H]1CC[C@]2(CC1)OC(=O)NN=C2c1ccc(S(C)(=O)=O)cc1Cl)NC(=O)c1cc2cc(F)ccc2o1 [Example 117] | 7.68 | 7.74 | – | – |
| CNC(=O)C(=O)N[C@@H](C)C[C@H]1CC[C@]2(CC1)OC(=O)NN=C2c1cnc(OC)cc1C [Example 154] | 7.57 | 7.85 | – | – |
| Cc1cccnc1C1=NNC(=O)O[C@]12CC[C@@H](C[C@H](C)NC(=O)c1cc(Cl)no1)CC2 [Example 148] | 7.70 | 7.74 | – | – |
| CC(=O)Nc1cccc2[nH]c(C(=O)N[C@@H](C)C[C@H]3CC[C@]4(CC3)OC(=O)NN=C4c3ccc(F)cc3)cc12 [Example 142] | 7.66 | > 8.00 | – | – |
| Cc1cc(C(=O)N[C@@H](C)CN2CC[C@]3(C[C@@H]2C)OC(=O)NN=C3c2ccc(C#N)cc2Cl)[nH]n1 [Example 281] | 6.77 | 6.63 | – | – |
| CNC(=O)C(=O)N[C@@H](C)C[C@H]1CC[C@]2(CC1)OC(=O)NN=C2c1cc(Cl)ccc1Cl [Example 314] | > 8.00 | > 8.00 | – | – |
